{
  "source": "patent US20230404929A1",
  "about": "“Intradermal Delivery of Extracellular Vesicle-Encapsulated Curcumin Using Dissolvable Microneedle Arrays” (priority 2020, published 2023)",
  "key": {"[1]": {"experiment": "in vitro stability of curcumin in phosphate-buffered saline at 37° C.", "type": "physicochemical"}, "[2]": {"system": "psoriasis-like inflammation", "experiment": "imiquimod psoriasis-like skin inflammation in mice", "type": "in vivo", "details": "skin cross-section", "text": "The efficacy of dMNA-delivered CA-EVs in simultaneously blocking and reversing inflammation was studied. The treatments included topical, intradermal, and dMNA application of CA-EVs, naïve EVs, and naked curcumin."}},
  "data": [
    {"compound": "COc1cc(/C=C/C(=O)CC(=O)/C=C/c2ccc(O)c(OC)c2)ccc1O", "note": "[naked curcumin, curcumin]", "values": [
      {"measurement": "curcumin remaining stable", "setting": "[1]; 3 hours", "value": 5, "unit": "%"},
      {"measurement": "degradation of curcumin over time", "setting": "[1]; seven-day study", "value": "degraded entirely within one day"},
      {"measurement": "therapeutic effect on imiquimod-induced skin inflammation", "setting": "[2]", "value": "negligible effect"}
    ]}
  ]
}
